The values below are quoted from earlier work in US20230398111A1, “ORAL FORMULATIONS OF NINTEDANIB AND METHOD OF MANUFACTURING THEREOF” (BDR PHARMACEUTICALS INTERNATIONAL PRIVATE LIMITED, priority 2020, published 2023).

The conditions of this data set: neutral conditions / neutral pH.

Molecules are shown by their SMILES.

For the compound `COC(=O)c1ccc2c(c1)NC(=O)/C2=C(\Nc1ccc(N(C)C(=O)CN2CCN(C)CC2)cc1)c1ccccc1` [Nintedanib esylate, methyl-2-hydroxy-3-[N-[4-[methyl-[2-(4-methylpiperazin-1-yl)acetyl]amino]phenyl]-C-phenylcarbonimidoyl]-1H-indole-6-carboxylate ethanesulfonic acid], the solubility entry was “poor solubility”.
